Several values for one entry are separate records, joined by “and”; a condition that tells them apart may be missing. Equal values may be shown once.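 A five-concentration, 48-hour dose response in 96-well plates underlies each endpoint, interpolated linearly between surrounding concentrations. Abbreviation: GI50, concentration required for 50% inhibition of growth. Definition used: TGI = concentration required for complete inhibition of growth.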
Experiments:
Experiment in all cases: growth of human tumour cells (NCI), 48 h
786-0 renal = tested on: 786-0 renal
A498 renal = tested on: A498 renal
A549 NSCLC = tested on: A549 NSCLC
ACHN renal = tested on: ACHN renal
BT-549 breast = tested on: BT-549 breast
CAKI-1 renal = tested on: CAKI-1 renal
CCRF-CEM leukemia = tested on: CCRF-CEM leukemia
COLO 205 colon = tested on: COLO 205 colon
DU-145 prostate = tested on: DU-145 prostate
EKVX NSCLC = tested on: EKVX NSCLC
HCC-2998 colon = tested on: HCC-2998 colon
HCT-116 colon = tested on: HCT-116 colon
HCT-15 colon = tested on: HCT-15 colon
HL-60(TB) leukemia = tested on: HL-60(TB) leukemia
HOP-62 NSCLC = tested on: HOP-62 NSCLC
HOP-92 NSCLC = tested on: HOP-92 NSCLC
HS 578T breast = tested on: HS 578T breast
HT29 colon = tested on: HT29 colon
IGROV1 ovarian = tested on: IGROV1 ovarian
K-562 leukemia = tested on: K-562 leukemia
KM12 colon = tested on: KM12 colon
LOX IMVI melanoma = tested on: LOX IMVI melanoma
M14 melanoma = tested on: M14 melanoma
MALME-3M melanoma = tested on: MALME-3M melanoma
MCF7 breast = tested on: MCF7 breast
MDA-MB-231 breast = tested on: MDA-MB-231 breast
MDA-MB-435 = tested on: MDA-MB-435
MDA-N = tested on: MDA-N
MOLT-4 leukemia = tested on: MOLT-4 leukemia
NCI-H226 lung = tested on: NCI-H226 lung
NCI-H23 lung = tested on: NCI-H23 lung

SMILES: C=CCN(/C=C1\C(=O)O[C@H](COC)[C@@]2(C)C1=C(O)C(=O)C1=C2[C@H](OC(C)=O)C[C@]2(C)C(=O)CC[C@@H]12)CC=C
- TGI (786-0 renal): 20 µM and 25.7 µM
- GI50 (A498 renal): 0.0671 µM and 0.049 µM
- TGI (A498 renal): 2.73 µM and 1.26 µM
- GI50 (A549 NSCLC): 0.151 µM and 0.361 µM
- GI50 (ACHN renal): 2.74 µM and 0.449 µM
- TGI (ACHN renal): 20 µM and > 100 µM
- TGI (BT-549 breast): 20 µM and 3.68 µM
- GI50 (CAKI-1 renal): 0.188 µM and 0.2 µM
- TGI (CAKI-1 renal): 20 µM and 10.1 µM
- GI50 (CCRF-CEM leukemia): 11.1 µM and 1.41 µM
- TGI (CCRF-CEM leukemia): 20 µM and > 100 µM
- GI50 (COLO 205 colon): 5.04 µM and 1.94 µM
- TGI (COLO 205 colon): 20 µM and 26.3 µM
- GI50 (DU-145 prostate): 11.2 µM and 1.27 µM
- TGI (DU-145 prostate): 20 µM and > 100 µM
- GI50 (EKVX NSCLC): 0.474 µM and 0.0779 µM
- TGI (EKVX NSCLC): 10.4 µM and 1.67 µM
- GI50 (HCC-2998 colon): 0.487 µM and 0.207 µM
- TGI (HCC-2998 colon): 8.12 µM and 4.94 µM
- GI50 (HCT-116 colon): 3.91 µM and 1.76 µM
- TGI (HCT-116 colon): 20 µM and > 100 µM
- GI50 (HCT-15 colon): 2.62 µM and 0.787 µM
- TGI (HCT-15 colon): 20 µM and > 100 µM
- GI50 (HL-60(TB) leukemia): 0.21 µM and 0.439 µM
- TGI (HL-60(TB) leukemia): 7.46 µM and 11.2 µM
- TGI (HOP-62 NSCLC): 20 µM and 71.3 µM
- TGI (HOP-92 NSCLC): 20 µM and 4.4 µM
- GI50 (HS 578T breast): 0.173 µM and 0.025 µM
- GI50 (HT29 colon): 0.101 µM and 0.558 µM
- TGI (HT29 colon): 20 µM and > 100 µM
- GI50 (IGROV1 ovarian): 0.145 µM and 0.206 µM
- GI50 (K-562 leukemia): 15.1 µM and 12 µM
- TGI (K-562 leukemia): 20 µM and > 100 µM
- GI50 (KM12 colon): 0.979 µM and 2.19 µM
- TGI (KM12 colon): 20 µM and 46.4 µM
- GI50 (LOX IMVI melanoma): 0.547 µM and 1.89 µM
- TGI (LOX IMVI melanoma): 20 µM and 21.4 µM
- GI50 (M14 melanoma): 2.98 µM
- TGI (M14 melanoma): > 100 µM
- TGI (MALME-3M melanoma): 5.5 µM and 8.3 µM
- GI50 (MCF7 breast): 0.186 µM and 0.257 µM
- TGI (MCF7 breast): 5.95 µM and 22.8 µM
- GI50 (MDA-MB-231 breast): 13.2 µM and 3.32 µM
- TGI (MDA-MB-231 breast): 20 µM and > 100 µM
- GI50 (MDA-MB-435): 1.29 µM and 3.63 µM
- TGI (MDA-MB-435): 13.5 µM and 46.9 µM
- GI50 (MDA-N): 5.91 µM
- TGI (MDA-N): 20 µM
- GI50 (MOLT-4 leukemia): 1.58 µM and 0.813 µM
- TGI (MOLT-4 leukemia): 20 µM and 17.1 µM
- GI50 (NCI-H226 lung): 0.364 µM and 1.16 µM
- GI50 (NCI-H23 lung): 8.94 µM and 2.69 µM
